According to ChEMBL document CHEMBL1201862, “PubChem BioAssay data set” (2004):
Activity calls are given as the source filed them.

Key:
Candida albicans = assay: fluconazole-resistant Candida strain growth inhibitors – CaCi-8 strain, dry powder, set 4, dose response (AID 488950); format: functional, organism-based
[1] = target: Glycogen synthase kinase-3 beta (Homo sapiens, UniProt P49841); assay: Inhibition of Human GSK-3 beta Activity Measured in Biochemical System Using Microfluidics - 2063-05_Inhibitor_Dose_DryPowder_Activity_Set2. [Related pubchem assays (depositor defined):AID2709]
Glycogen synthase kinase-3 beta, sequence (P49841 whole entry): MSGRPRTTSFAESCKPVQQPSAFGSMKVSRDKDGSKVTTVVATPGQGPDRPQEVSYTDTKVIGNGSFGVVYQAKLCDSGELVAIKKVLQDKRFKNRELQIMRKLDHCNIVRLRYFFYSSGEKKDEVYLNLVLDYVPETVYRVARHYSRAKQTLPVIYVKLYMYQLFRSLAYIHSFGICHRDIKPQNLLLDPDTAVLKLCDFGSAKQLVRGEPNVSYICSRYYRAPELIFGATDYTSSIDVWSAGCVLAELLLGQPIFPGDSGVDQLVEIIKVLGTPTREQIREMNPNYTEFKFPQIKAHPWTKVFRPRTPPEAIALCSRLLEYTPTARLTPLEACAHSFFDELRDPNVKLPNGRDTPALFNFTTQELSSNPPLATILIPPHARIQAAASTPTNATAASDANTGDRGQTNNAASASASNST

[2] = target: Glycogen synthase kinase-3 alpha (Homo sapiens, UniProt P49840); assay: Inhibition of Human GSK-3 alpha Activity Measured in Biochemical System Using Microfluidics - 2063-06_Inhibitor_Dose_DryPowder_Activity_Set2. [Related pubchem assays (depositor defined):AID2709]
Glycogen synthase kinase-3 alpha, sequence (P49840 whole entry): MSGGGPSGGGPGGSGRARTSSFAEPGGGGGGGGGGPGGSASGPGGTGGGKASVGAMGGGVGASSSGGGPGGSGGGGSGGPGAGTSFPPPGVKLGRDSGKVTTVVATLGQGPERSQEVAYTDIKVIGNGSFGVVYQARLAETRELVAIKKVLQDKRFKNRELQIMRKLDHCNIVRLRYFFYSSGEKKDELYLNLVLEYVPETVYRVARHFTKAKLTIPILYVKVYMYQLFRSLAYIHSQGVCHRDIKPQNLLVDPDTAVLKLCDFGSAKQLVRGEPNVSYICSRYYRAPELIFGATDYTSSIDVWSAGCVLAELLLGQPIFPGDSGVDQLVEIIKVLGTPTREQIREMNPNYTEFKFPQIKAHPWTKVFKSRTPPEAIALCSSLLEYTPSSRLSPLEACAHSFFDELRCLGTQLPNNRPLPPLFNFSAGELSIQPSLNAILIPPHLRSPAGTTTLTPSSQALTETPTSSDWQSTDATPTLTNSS

Cysteine protease ATG4B = Cysteine protease ATG4B (Homo sapiens, UniProt Q9Y4P1); format: functional;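 note: Fluorescence-based dose-response confirmation assay measuring inhibition of ATG4B activity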
Cysteine protease ATG4B, sequence (Q9Y4P1 whole entry): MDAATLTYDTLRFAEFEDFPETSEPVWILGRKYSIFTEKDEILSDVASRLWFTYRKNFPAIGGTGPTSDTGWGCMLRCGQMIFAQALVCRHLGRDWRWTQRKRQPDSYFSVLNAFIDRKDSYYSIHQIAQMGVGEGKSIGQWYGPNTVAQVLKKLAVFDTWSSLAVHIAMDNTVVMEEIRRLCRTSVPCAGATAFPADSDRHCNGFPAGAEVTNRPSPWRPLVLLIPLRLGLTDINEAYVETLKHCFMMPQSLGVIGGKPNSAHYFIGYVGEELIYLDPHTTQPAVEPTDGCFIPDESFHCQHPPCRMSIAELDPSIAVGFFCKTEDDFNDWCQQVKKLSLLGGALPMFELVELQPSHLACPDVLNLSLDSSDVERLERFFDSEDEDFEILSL

Phospholipase A2 = Phospholipase A2 (Homo sapiens, UniProt P04054); format: functional;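 note: confirmatory dose-response counterscreen on phospholipase A2, testing hits that came from an ultra-high-throughput screen for ATG4B inhibitors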
Phospholipase A2, sequence (P04054 whole entry): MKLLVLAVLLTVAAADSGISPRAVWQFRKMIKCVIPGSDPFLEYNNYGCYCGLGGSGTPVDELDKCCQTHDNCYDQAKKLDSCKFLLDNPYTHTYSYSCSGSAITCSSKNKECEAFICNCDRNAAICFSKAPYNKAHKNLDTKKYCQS

Orexin receptor type 2 [3] = target: T1, Orexin receptor type 2 (Homo sapiens, UniProt O43614); assay: Counterscreen assay for antagonists of the orexin 1 receptor (OX1R; HCRTR1): Homogeneous Time Resolved Fluorescence (HTRF)-based cell-based dose response assay for antagonists of the orexin 2 receptor (OX2R; HCRTR2), run by assay provider.; format: functional
T1 sequence (O43614 whole entry): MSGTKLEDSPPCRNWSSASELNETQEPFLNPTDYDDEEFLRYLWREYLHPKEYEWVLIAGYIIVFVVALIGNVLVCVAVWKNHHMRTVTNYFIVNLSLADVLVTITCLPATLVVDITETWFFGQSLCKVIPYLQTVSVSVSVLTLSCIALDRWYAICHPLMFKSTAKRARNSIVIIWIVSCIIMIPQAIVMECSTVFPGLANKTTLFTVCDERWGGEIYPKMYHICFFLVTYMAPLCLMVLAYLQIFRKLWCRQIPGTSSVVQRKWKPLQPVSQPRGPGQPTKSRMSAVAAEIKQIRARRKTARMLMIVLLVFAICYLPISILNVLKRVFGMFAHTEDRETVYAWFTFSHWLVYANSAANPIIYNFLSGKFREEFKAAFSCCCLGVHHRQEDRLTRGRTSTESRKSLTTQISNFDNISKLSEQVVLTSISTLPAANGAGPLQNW

[4] = target: T2, Orexin/Hypocretin receptor type 1 (Homo sapiens, UniProt O43613); assay: (§1) Fluorescence-based cell-based high throughput dose response assay for antagonists of the orexin 1 receptor (OX1R; HCRTR1). [Related pubchem assays (depositor defined):AID434989, AID435008, AID463079, AID485270, AID492963, AID492964, AID492965, AID493232, AID504717, AID504718]; format: functional
T2 sequence (O43613 whole entry): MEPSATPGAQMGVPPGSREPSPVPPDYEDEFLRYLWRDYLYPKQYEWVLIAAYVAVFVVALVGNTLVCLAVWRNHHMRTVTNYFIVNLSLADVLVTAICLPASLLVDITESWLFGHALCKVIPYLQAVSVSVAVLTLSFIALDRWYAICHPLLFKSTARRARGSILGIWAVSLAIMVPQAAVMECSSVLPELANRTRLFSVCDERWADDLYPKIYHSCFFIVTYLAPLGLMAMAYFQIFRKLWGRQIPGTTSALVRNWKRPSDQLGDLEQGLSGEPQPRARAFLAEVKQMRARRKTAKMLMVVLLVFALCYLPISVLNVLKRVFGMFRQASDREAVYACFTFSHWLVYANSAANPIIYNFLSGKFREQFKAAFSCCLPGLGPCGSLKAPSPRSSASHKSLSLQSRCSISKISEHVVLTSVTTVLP

[5] = target: T2, Orexin/Hypocretin receptor type 1; assay: as §1, with “Homogeneous Time Resolved Fluorescence (HTRF)-based” for “Fluorescence-based”; format: functional
CHO-K1 = assay: (§2) Counterscreen for antagonists of the orexin 1 receptor (OX1R; HCRTR1): Homogeneous time resolved fluorescence (HTRF)-based cell-based dose response assay to identify antagonists of the parental CHO-K1 cell line. [Related pubchem assays (depositor defined):AID434989, AID435008, AID463079, AID485270, AID492963, AID492964, AID492965, AID493232, AID504699, AID504701]; format: functional; settings: Cricetulus griseus
[6] = as §2, with “Fluorescence-based” for “Homogeneous time resolved fluorescence (HTRF)-based”, “cell-based high throughput” for “cell-based”, “CHO” for “CHO-K1”; format: functional
Orexin receptor type 2 [7] = target: T1, Orexin receptor type 2; assay: Counterscreen assay for antagonists of the orexin 1 receptor (OX1R; HCRTR1): Fluorescence-based cell-based dose response assay for antagonists of the orexin 2 receptor (OX2R; HCRTR2), run by assay provider.; format: functional
[8] = system: Streptococcus sp. 'group A'; assay: Streptococcus pyogenes SK(-)GAS viability under kanamycin – luminescence, BacTiterGlo, confirmation, counter-screen for streptokinase expression inhibitor project, dose response (AID 1900); format: functional, organism-based
[9] = viability of uninfected HEp-2 cells – cell-based, HTS, cytotoxicity control for RSV inhibitor project, dose response (AID 2410); format: functional; settings: human respiratory syncytial virus
[10] = target: T3, Heat shock factor protein 1 (Mus musculus, UniProt P38532); assay: decrease of HSF1-responsive luciferase luminescence – cell-based, NIH3T3, dose retest, confirmation (AID 2382); format: functional;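 note: NIH3T3 fibroblasts with HSF1-driven luciferase reporter stressed by proteasome inhibitor MG132; luminescence from HSF1-driven luciferase expression after 8 hours of MG132 stress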
T3 sequence (P38532 whole entry): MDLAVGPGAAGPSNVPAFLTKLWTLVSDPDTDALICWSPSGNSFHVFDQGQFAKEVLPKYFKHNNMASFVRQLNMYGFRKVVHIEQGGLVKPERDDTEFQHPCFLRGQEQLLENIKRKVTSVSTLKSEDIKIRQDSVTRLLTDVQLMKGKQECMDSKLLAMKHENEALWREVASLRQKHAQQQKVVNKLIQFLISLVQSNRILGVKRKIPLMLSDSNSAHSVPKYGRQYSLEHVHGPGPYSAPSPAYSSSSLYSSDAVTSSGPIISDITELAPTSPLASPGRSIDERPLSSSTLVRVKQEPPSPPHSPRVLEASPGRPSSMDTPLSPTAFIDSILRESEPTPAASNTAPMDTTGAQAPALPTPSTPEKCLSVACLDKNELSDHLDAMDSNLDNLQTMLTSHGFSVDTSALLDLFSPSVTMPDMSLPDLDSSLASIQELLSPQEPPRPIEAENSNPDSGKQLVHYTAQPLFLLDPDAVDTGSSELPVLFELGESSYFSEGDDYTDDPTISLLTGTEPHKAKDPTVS

Escherichia coli = assay: microbe, parasite or virus in culture
Streptococcus = assay: GAS UMAA2166 growth inhibition – luminescence, BacTiterGlo, counter-screen for streptokinase expression inhibitor project, dose response (AID 1915); format: functional, organism-based;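 note: potency for reduction of bacterial viability or growth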
[11] = inhibitors of non-replicating M. tuberculosis, dose response, luciferase, dry powder (AID 651620); format: functional; settings: Mycobacterium tuberculosis
[12] = inhibitors of non-replicating M. tuberculosis, dose response, luciferase, dry powder (AID 651619); format: functional; settings: Mycobacterium tuberculosis
Insulin-degrading enzyme [13] = target: T4, Insulin-degrading enzyme (Homo sapiens, UniProt P14735); assay: cellular IDE activation of Abeta substrate cleavage – fluorescence polarization, HEK cells, dose response (AID 588439); format: functional, cell-based
T4 sequence (P14735 whole entry): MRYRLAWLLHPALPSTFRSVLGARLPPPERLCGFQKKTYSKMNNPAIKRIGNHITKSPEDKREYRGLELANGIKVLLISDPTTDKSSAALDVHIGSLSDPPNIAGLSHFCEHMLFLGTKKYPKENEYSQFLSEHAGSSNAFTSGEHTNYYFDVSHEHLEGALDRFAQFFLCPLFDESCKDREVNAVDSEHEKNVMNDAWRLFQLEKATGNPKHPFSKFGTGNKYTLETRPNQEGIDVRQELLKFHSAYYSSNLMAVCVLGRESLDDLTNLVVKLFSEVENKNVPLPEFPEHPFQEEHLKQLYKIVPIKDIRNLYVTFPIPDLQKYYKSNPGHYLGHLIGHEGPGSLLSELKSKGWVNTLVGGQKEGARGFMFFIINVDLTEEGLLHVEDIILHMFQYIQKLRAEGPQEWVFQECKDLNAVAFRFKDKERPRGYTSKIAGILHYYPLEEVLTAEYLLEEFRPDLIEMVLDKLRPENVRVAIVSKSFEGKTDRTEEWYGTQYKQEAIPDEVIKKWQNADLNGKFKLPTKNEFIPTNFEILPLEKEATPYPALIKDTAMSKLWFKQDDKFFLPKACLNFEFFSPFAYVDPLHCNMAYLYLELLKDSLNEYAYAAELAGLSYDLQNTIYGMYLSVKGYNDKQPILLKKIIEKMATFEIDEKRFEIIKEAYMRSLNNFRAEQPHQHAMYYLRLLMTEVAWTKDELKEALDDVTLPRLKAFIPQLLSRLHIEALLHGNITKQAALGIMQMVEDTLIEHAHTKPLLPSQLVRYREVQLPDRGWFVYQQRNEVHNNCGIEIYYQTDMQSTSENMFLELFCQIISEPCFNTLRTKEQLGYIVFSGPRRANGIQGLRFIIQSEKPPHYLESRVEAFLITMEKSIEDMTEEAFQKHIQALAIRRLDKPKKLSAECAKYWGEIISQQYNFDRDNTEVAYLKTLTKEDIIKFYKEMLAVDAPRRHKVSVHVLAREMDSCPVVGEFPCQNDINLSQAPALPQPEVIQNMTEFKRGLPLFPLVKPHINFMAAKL

HEK293 [14] = assay: membrane integrity loss in HEK cells – cell-based, fluorescence, cytotoxicity control for IDE activator project, dose response (AID 588440); format: functional; settings: Homo sapiens;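 note: cytotoxicity by LDH release measuring loss of membrane integrity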
HEK293 [15] = assay: optical interference in Abeta FP readout, dose response, artefact control for IDE activator project, biochemical, fluorescence polarization (AID 588442); format: functional, cell-based; settings: Homo sapiens
[16] = cytotoxicity toward MDA-MB-231 breast cancer cells – cell-based, CellTiter-Glo luminescence, cherry-pick, cytotoxicity control for RAD54 inhibitor project, dose response (AID 651692); format: functional
Insulin-degrading enzyme [17] = target: T4, Insulin-degrading enzyme; assay: recombinant IDE activation, cell-free – biochemical, fluorescence polarization, counter-screen for IDE activator project, dose response (AID 588681)
[18] = target: T5, Ubiquitin-conjugating enzyme E2 N (Homo sapiens, UniProt P61088); format: functional;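 note: Dose-response confirmation in a TR-FRET assay detecting UBC13-driven polyubiquitin chain formation, inhibition measured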
T5 sequence (P61088 whole entry): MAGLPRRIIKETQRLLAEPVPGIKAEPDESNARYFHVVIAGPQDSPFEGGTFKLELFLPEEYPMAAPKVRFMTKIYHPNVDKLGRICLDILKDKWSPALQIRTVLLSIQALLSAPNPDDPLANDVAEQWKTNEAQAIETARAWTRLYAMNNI

[19] = microbe, parasite or virus in culture; format: functional; settings: Mycobacterium tuberculosis
[20] = Luminescence Cell-Based Dose Retest to Confirm Inhibitors of Cancer Stem Cells. [Related pubchem assays (depositor defined):AID2717, AID2721]; format: functional; settings: Homo sapiens

CCCCNC(=O)N1CCN(c2ccnc3cc(Cl)ccc23)CC1
AC50 (Candida albicans): 23 µM (active)

Nc1nc(NCCCN2CCOCC2)nc(Nc2cccc(Cl)c2)c1[N+](=O)[O-]
AC50 [1]: 253 nM (active) | AC50 [2]: 429 nM (active)

O=C(O)CC/C(=C\c1ccc(Cl)c([N+](=O)[O-])c1)c1nc2ccccc2s1
IC50 (Cysteine protease ATG4B): 14.3 µM (active) | IC50 (Phospholipase A2): 12.3 µM (active)

O=[N+]([O-])c1cccc(-c2nc(-c3cccs3)c(-c3cccs3)[nH]2)c1
IC50 (Orexin receptor type 2 [3]): 3.2 µM (active) | IC50 [4]: > 5.53 µM (active) | IC50 [5]: 6.65 µM (active) | IC50 (CHO-K1): > 66.2 µM (inactive) | IC50 [6]: > 49.8 µM (inactive) | IC50 (Orexin receptor type 2 [7]): 28.8 µM (inactive)

COc1c(N2CCN(C(S)=NC3CC4CCC3C4)C(C)C2)c(F)cc2c(=O)c(C(=O)O)cn(C3CC3)c12 (centres undefined)
EC50 [8]: 5.85 µM (active) | CC50 [9]: 9.91 µM (active) | EC50 [10]: 17 µM (active) | AC50 (Escherichia coli): 2.64 µM (active) | EC50 (Streptococcus): 3.77 µM (active)

Fc1ccc(CSc2nnc(-c3ccncc3)o2)cc1
IC90 [11]: 4 µM (active) | AC50 [1]: 578 nM (active) | IC90 [12]: 4 µM (active) | AC50 [2]: 3370 nM (active)

Cc1ccc(C)c(N2CCN(C(=S)Nc3ccc4nc(N5CCN(C)CC5)cc(C)c4c3)CC2)c1
EC50 (Insulin-degrading enzyme [13]): > 54.7 µM (inactive) | IC50 (HEK293 [14]): 18 µM (inactive) | EC50 (HEK293 [15]): > 55.9 µM (inactive) | AC50 [16]: 34.8 µM (active) | EC50 (Insulin-degrading enzyme [17]): > 54.7 µM (inactive) | IC50 [18]: > 20 µM (inactive) | CC50 [19]: 17.1 µM (active) | AC50 [20]: 13.3 µM (active)

O=C1OC(c2cccs2)=N/C1=C\c1ccc(-c2cccc(Cl)c2)o1
IC50 (Cysteine protease ATG4B): 14.8 µM (active) | IC50 (Phospholipase A2): 0.605 µM (active)

O=C(NCC1CC1)c1onc(CSc2ccc(F)c(F)c2)c1C(=O)NCC1CC1
EC50 (Insulin-degrading enzyme [13]): > 54.7 µM (inactive) | IC50 (HEK293 [14]): > 89.3 µM (inactive) | EC50 (HEK293 [15]): > 54.7 µM (inactive) | EC50 (Insulin-degrading enzyme [17]): > 54.7 µM (inactive)
